Experimental data reported in ChEMBL document CHEMBL1149850, “Cytotoxic hydrolyzable tannins from Balanophora japonica” (J Nat Prod, 2008).

Each molecule was assayed on HepG2 (assay: Cytotoxicity against human HepG2 cells).
Type: functional, cell-based
With `O=C(O)C[C@@]12Oc3c(O)c(O)cc(C(=O)OC[C@H]4O[C@@H](OC(=O)/C=C/c5ccc(O)c(O)c5)[C@H](O)[C@@H](O)[C@@H]4O)c3[C@@H]1[C@H](C(=O)O)OC2=O` [BALANOPHOTANNIN G] the IC50 was 18 µM.
With `O=C(O)C[C@@H]1C(=O)O[C@H]2[C@H](O)[C@@H](O)[C@H](OC(=O)/C=C/c3ccc(O)c(O)c3)O[C@@H]2COC(=O)c2cc(O)c(O)c3c2[C@H]1C(=O)O3` [BALANOPHOTANNIN F] the IC50 was 48.4 µM.
Molecule `O=C(/C=C/c1ccc(O)c(O)c1)O[C@@H]1O[C@H](COC(=O)[C@H]2CC(=O)c3oc(=O)c4cc(O)c(O)c(O)c4c32)[C@@H](O)[C@H](O)[C@H]1O` [BALANOPHOTANNIN D] has an IC50 of 17.4 µM.
`O=c1[nH]cc(F)c(=O)[nH]1` [FLUOROURACIL] showed an IC50 of 18.7 µM.
Molecule `O=C(O[C@@H]1O[C@H](COC(=O)[C@H]2CC(=O)c3oc(=O)c4cc(O)c(O)c(O)c4c32)[C@@H](O)[C@H](OC(=O)c2cc(O)c(O)c(O)c2)[C@H]1O)c1cc(O)c(O)c(O)c1` [BALANOPHOTANNIN E] has an IC50 of 4.22 µM.
